Assays:
Assay type in all cases: in vivo
[1] = tested on: Echinochloa oryzacola Vasing.; experiment: Test Example 1: herbicidal activity, application before weed generation in submerged conditions (symbol A); settings: application herbicide amount 320 g/ha
Procedure, shortened: (§1)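 Ratings (5: ≥90%, near complete withering; 4: 70–<90%; 3: 40–<70%; 2: 20–<40%; 1: 5–<20%; 0: ≤5%) were assigned 3 weeks after the diluted emulsion was applied to the water surface of freshly sown, submerged pots.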

Scirpus juncoides [2] = experiment: Test Example 1: herbicidal activity, application before weed generation in submerged conditions (symbol B); settings: application herbicide amount 320 g/ha
Procedure, shortened: as §1

Monochoria vaginalis [3] = experiment: Test Example 1: herbicidal activity, application before weed generation in submerged conditions (symbol C); settings: application herbicide amount 320 g/ha
Procedure, shortened: as §1

transplanted rice plant = experiment: Test Example 1: effect on crop, application before weed generation in submerged conditions (symbol a); settings: application herbicide amount 320 g/ha
Procedure, shortened: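 Alluvial soil pots flooded to 4 cm water, sown with Echinochloa oryzacola, Scirpus juncoides and Monochoria vaginalis, then transplanted with 2.5 leaf stage rice seedlings; pre-emergence application. Greenhouse 25° C. to 30° C.; scored 0–5 by herbicidal ratio 3 weeks after application.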

[4] = tested on: Echinochloa oryzacola Vasing.; experiment: Test Example 2: herbicidal activity, application during weed generation in submerged conditions (symbol A); settings: Table 23; application herbicide amount 320 g/ha; grade 0-5 by criteria of Test Example 1
Procedure, shortened: (§2)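 Paddy pot test, submerged (4 cm water), alluvial soil, mixed sowing; greenhouse 25–30° C. Emulsion formulation diluted to predetermined rate, applied onto floodwater at 1–2 leaf stage. Visual herbicidal rating at 3 wk post-treatment.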

Scirpus juncoides [5] = experiment: Test Example 2: herbicidal activity, application during weed generation in submerged conditions (symbol B); settings: Table 23; application herbicide amount 320 g/ha; grade 0-5 by criteria of Test Example 1
Procedure, shortened: as §2

Monochoria vaginalis [6] = experiment: Test Example 2: herbicidal activity, application during weed generation in submerged conditions (symbol C); settings: Table 23; application herbicide amount 320 g/ha; grade 0-5 by criteria of Test Example 1
Procedure, shortened: as §2

[7] = tested on: Echinochloa crus-galli var. crus-galli; experiment: Test Example 3: herbicidal effect by foliage application, Wagner pot (symbol H); settings: application herbicide amount 320 g/ha
Procedure, shortened: (§3)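 Foliar spray of water-diluted emulsion formulation at a predetermined herbicide amount onto 14-day-old plants in flooded alluvial soil (water depth 0.1–0.5 cm), greenhouse 25–30 °C; rice sown alongside. Scored 3 wk post-application on set criteria.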

Leptochloa chinensis = experiment: Test Example 3: herbicidal effect by foliage application, Wagner pot (symbol D); settings: application herbicide amount 320 g/ha
Procedure, shortened: as §3

Cyperus difformis = experiment: Test Example 3: herbicidal effect by foliage application, Wagner pot (symbol E); settings: application herbicide amount 320 g/ha
Procedure, shortened: as §3

[8] = tested on: directly sowed rice plant; experiment: Test Example 3: effect on crop by foliage application, Wagner pot (symbol b); settings: application herbicide amount 320 g/ha
Procedure, shortened: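 Alluvial soil in a 1/10000-are Wagner pot was flooded to a water depth of 0.1–0.5 cm. Echinochloa crus-galli var. crus-galli, Leptochloa chinensis, Cyperus difformis and rice were sown into it and grown in a greenhouse at 25–30 °C.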

Digitaria ciliaris = experiment: Test Example 5: herbicidal effect by foliage application, plastic box (symbol F); settings: 320 g/ha, 3 weeks after application
Procedure, shortened: (§4)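 Seeds were sown in sterilized diluvial soil, covered with about 1.5 cm of soil and grown 14 days in a greenhouse at 25° C. to 30° C. An emulsifiable formulation diluted in water to a set rate was sprayed over foliage, and injury was scored 3 weeks later.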

Setaria viridis = experiment: Test Example 5: herbicidal effect by foliage application, plastic box (symbol G); settings: 320 g/ha, 3 weeks after application
Procedure, shortened: as §4

[9] = tested on: Echinochloa crus-galli var. crus-galli; experiment: Test Example 5: herbicidal effect by foliage application, plastic box (symbol H); settings: 320 g/ha, 3 weeks after application
Procedure, shortened: as §4

Avena fatua = experiment: Test Example 5: herbicidal effect by foliage application, plastic box (symbol I); settings: 320 g/ha, 3 weeks after application
Procedure, shortened: as §4

Alopecurus myosuroides = experiment: Test Example 5: herbicidal effect by foliage application, plastic box (symbol J); settings: 320 g/ha, 3 weeks after application
Procedure, shortened: as §4

Lolium multiflorum Lam. = experiment: Test Example 5: herbicidal effect by foliage application, plastic box (symbol K); settings: 320 g/ha, 3 weeks after application
Procedure, shortened: as §4

Apera spica-venti = experiment: Test Example 5: herbicidal effect by foliage application, plastic box (symbol L); settings: 320 g/ha, 3 weeks after application
Procedure, shortened: as §4

Abutilon theophrasti = experiment: Test Example 5: herbicidal effect by foliage application, plastic box (symbol M); settings: 320 g/ha, 3 weeks after application
Procedure, shortened: as §4

Amaranthus retroflexus = experiment: Test Example 5: herbicidal effect by foliage application, plastic box (symbol N); settings: 320 g/ha, 3 weeks after application
Procedure, shortened: as §4

Chenopodium album = experiment: Test Example 5: herbicidal effect by foliage application, plastic box (symbol O); settings: 320 g/ha, 3 weeks after application
Procedure, shortened: as §4

Stellaria media = experiment: Test Example 5: herbicidal effect by foliage application, plastic box (symbol P); settings: 320 g/ha, 3 weeks after application
Procedure, shortened: as §4

Galium spurium = experiment: Test Example 5: herbicidal effect by foliage application, plastic box (symbol Q); settings: 320 g/ha, 3 weeks after application
Procedure, shortened: as §4

Veronica persica = experiment: Test Example 5: herbicidal effect by foliage application, plastic box (symbol R); settings: 320 g/ha, 3 weeks after application
Procedure, shortened: as §4

corn = experiment: Test Example 5: effect on crop by foliage application, plastic box (symbol c); settings: 320 g/ha, 3 weeks after application
Procedure, shortened: (§5)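 Sterilized diluvial soil, plastic box (21 × 13 × 7 cm); spot sowing, ~1.5 cm soil cover; greenhouse 25–30° C.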

soybean = experiment: Test Example 5: effect on crop by foliage application, plastic box (symbol d); settings: 320 g/ha, 3 weeks after application
Procedure, shortened: as §5

rice plant = experiment: Test Example 5: effect on crop by foliage application, plastic box (symbol b); settings: 320 g/ha, 3 weeks after application
Procedure, shortened: as §5

wheat = experiment: Test Example 5: effect on crop by foliage application, plastic box (symbol e); settings: 320 g/ha, 3 weeks after application
Procedure, shortened: as §5

beet = experiment: Test Example 5: effect on crop by foliage application, plastic box (symbol f); settings: 320 g/ha, 3 weeks after application
Procedure, shortened: as §5

rapeseed = experiment: Test Example 5: effect on crop by foliage application, plastic box (symbol g); settings: 320 g/ha, 3 weeks after application
Procedure, shortened: as §5

## CON=C(C)CC1CC(OC(=O)N(C)C)=C(c2c(C)cc(-c3ccc(Cl)cc3)cc2OC)C1=O (stereo not drawn) [6-081]
[1]
  Herbicidal effect grade, A: Echinochloa oryzacola Vasing.: 5 (Herbicidal ratio of 90% or more (almost completely withered))
Scirpus juncoides [2]
  Herbicidal effect grade, B: Scirpus juncoides: 0 (Herbicidal ratio of 5% or lower (almost no effect))
Monochoria vaginalis [3]
  Herbicidal effect grade, C: Monochoria vaginalis: 1 (Herbicidal ratio of 5% or higher and lower than 20%)
Transplanted rice plant
  Effect grade on crop, a: transplanted rice plant: 3 (Herbicidal ratio of 40% or higher and lower than 70%)
[4]
  Herbicidal effect grade, A: Echinochloa oryzacola Vasing.: 1 (Herbicidal ratio of 5% or higher and lower than 20%)
Scirpus juncoides [5]
  Herbicidal effect grade, B: Scirpus juncoides: 0 (Herbicidal ratio of 5% or lower (almost no effect))
Monochoria vaginalis [6]
  Herbicidal effect grade, C: Monochoria vaginalis: 0 (Herbicidal ratio of 5% or lower (almost no effect))
[7]
  herbicidal effect on H (Echinochloa crus-galli var. crus-galli), grade 0-5: 1 (Herbicidal ratio of 5% or higher and lower than 20%)
Leptochloa chinensis
  herbicidal effect on D (Leptochloa chinensis), grade 0-5: 3 (Herbicidal ratio of 40% or higher and lower than 70%)
Cyperus difformis
  herbicidal effect on E, grade 0-5: 0 (Herbicidal ratio of 5% or lower (almost no effect))
[8]
  effect on crop b (directly sowed rice plant), grade 0-5: 0 (Herbicidal ratio of 5% or lower (almost no effect))
Digitaria ciliaris
  F: Digitaria ciliaris, herbicidal effect (criteria of Test Example 1): 4 (Herbicidal ratio of 70% or higher and lower than 90%)
Setaria viridis
  G: Setaria viridis, herbicidal effect (criteria of Test Example 1): 0 (Herbicidal ratio of 5% or lower (almost no effect))
[9]
  H: Echinochloa crus-galli var. crus-galli, herbicidal effect (criteria of Test Example 1): 4 (Herbicidal ratio of 70% or higher and lower than 90%)
Avena fatua
  I: Avena fatua, herbicidal effect (criteria of Test Example 1): 5 (Herbicidal ratio of 90% or more (almost completely withered))
Alopecurus myosuroides
  J: Alopecurus myosuroides, herbicidal effect (criteria of Test Example 1): 3 (Herbicidal ratio of 40% or higher and lower than 70%)
Lolium multiflorum Lam.
  K: Lolium multiflorum Lam., herbicidal effect (criteria of Test Example 1): 4 (Herbicidal ratio of 70% or higher and lower than 90%)
Apera spica-venti
  L: Apera spica-venti, herbicidal effect (criteria of Test Example 1): 5 (Herbicidal ratio of 90% or more (almost completely withered))
Abutilon theophrasti
  M: Abutilon theophrasti, herbicidal effect (criteria of Test Example 1): 0 (Herbicidal ratio of 5% or lower (almost no effect))
Amaranthus retroflexus
  N: Amaranthus retroflexus, herbicidal effect (criteria of Test Example 1): 0 (Herbicidal ratio of 5% or lower (almost no effect))
Chenopodium album
  O: Chenopodium album, herbicidal effect (criteria of Test Example 1): 0 (Herbicidal ratio of 5% or lower (almost no effect))
Stellaria media
  P: Stellaria media, herbicidal effect (criteria of Test Example 1): 0 (Herbicidal ratio of 5% or lower (almost no effect))
Galium spurium
  Q: Galium spurium, herbicidal effect (criteria of Test Example 1): 0 (Herbicidal ratio of 5% or lower (almost no effect))
Veronica persica
  R: Veronica persica, herbicidal effect (criteria of Test Example 1): 0 (Herbicidal ratio of 5% or lower (almost no effect))
corn
  c: corn, effect on crop (criteria of Test Example 1): 5 (Herbicidal ratio of 90% or more (almost completely withered))
soybean
  d: soybean, effect on crop (criteria of Test Example 1): 0 (Herbicidal ratio of 5% or lower (almost no effect))
Rice plant
  b: directly sowed rice plant, effect on crop (criteria of Test Example 1): 0 (Herbicidal ratio of 5% or lower (almost no effect))
wheat
  e: wheat, effect on crop (criteria of Test Example 1): 3 (Herbicidal ratio of 40% or higher and lower than 70%)
beet
  f: beet, effect on crop (criteria of Test Example 1): 0 (Herbicidal ratio of 5% or lower (almost no effect))
rapeseed
  g: rapeseed, effect on crop (criteria of Test Example 1): 3 (Herbicidal ratio of 40% or higher and lower than 70%)
